One block for each molecule: values may come before it. Calls of active or inactive are those of the source. The rule behind the calls is not given here.
How the values were obtained:
[1] = biological target: T1, 3',5'-cyclic-AMP phosphodiesterase 4D (Homo sapiens, UniProt Q08499); assay: Inhibition of PDE4D7 (unknown origin) using FAM-cyclic-3',5'-AMP as substrate at 100 nM incubated for 1 hrs by fluorescence polarization based IMAP assay relative to control
[2] = Selectivity ratio for inhibition of PDE9A (unknown origin) using FAM-cyclic-3',5'-AMP as substrate to inhibition of PDE4B1 (unknown origin) using FAM-cyclic-3',5'-AMP as substrate
[3] = Chemical stability of compound in aqueous solution at pH <6 measured after 48 hrs; type: physicochemical; conditions: buffer
[4] = biological target: T1, 3',5'-cyclic-AMP phosphodiesterase 4D; assay: Inhibition of PDE4D7 (unknown origin) using FAM-cyclic-3',5'-AMP as substrate incubated for 1 hrs by fluorescence polarization based IMAP assay
[5] = biological target: High affinity 3',5'-cyclic-AMP phosphodiesterase 7A (Homo sapiens) (UniProt Q13946); assay: Inhibition of PDE7A (unknown origin) using FAM-cyclic-3',5'-AMP as substrate at 10 uM incubated for 1 hrs by fluorescence polarization based IMAP assay relative to control
Sequence of High affinity 3',5'-cyclic-AMP phosphodiesterase 7A (Homo sapiens) (Q13946 whole entry): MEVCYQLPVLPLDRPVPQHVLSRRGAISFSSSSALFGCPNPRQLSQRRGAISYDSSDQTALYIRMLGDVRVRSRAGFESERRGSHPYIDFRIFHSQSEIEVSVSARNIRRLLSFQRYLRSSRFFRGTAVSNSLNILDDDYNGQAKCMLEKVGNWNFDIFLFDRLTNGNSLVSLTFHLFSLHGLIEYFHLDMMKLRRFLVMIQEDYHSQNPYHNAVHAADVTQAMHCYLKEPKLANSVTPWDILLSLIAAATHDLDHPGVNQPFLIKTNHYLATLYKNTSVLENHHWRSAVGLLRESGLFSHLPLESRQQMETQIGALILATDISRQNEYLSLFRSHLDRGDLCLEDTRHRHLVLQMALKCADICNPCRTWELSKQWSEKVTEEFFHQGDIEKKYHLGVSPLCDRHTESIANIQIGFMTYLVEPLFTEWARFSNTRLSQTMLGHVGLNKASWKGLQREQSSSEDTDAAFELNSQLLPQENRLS

[6] = Toxicity in ketamine/xylazine-induced anesthetic C57BL/6J mouse model assessed as emetogenic potential by measuring reduction in anesthesia duration at 5 mg/kg, po preadministered with compound for 15 mins followed by ketamine/xylazine administration; type: organism-based; conditions: in vivo, 0.25 h
[7] = Selectivity ratio for inhibition of PDE7A (unknown origin) using FAM-cyclic-3',5'-AMP as substrate to inhibition of PDE4D7 (unknown origin) using FAM-cyclic-3',5'-AMP as substrate
[8] = Selectivity ratio for inhibition of PDE9A (unknown origin) using FAM-cyclic-3',5'-AMP as substrate to inhibition of PDE4D7 (unknown origin) using FAM-cyclic-3',5'-AMP as substrate
[9] = Selectivity ratio for inhibition of PDE3B (unknown origin) using FAM-cyclic-3',5'-AMP as substrate to inhibition of PDE4B1 (unknown origin) using FAM-cyclic-3',5'-AMP as substrate
[10] = Selectivity ratio for inhibition of PDE3B (unknown origin) using FAM-cyclic-3',5'-AMP as substrate to inhibition of PDE4D7 (unknown origin) using FAM-cyclic-3',5'-AMP as substrate
[11] = biological target: T1, 3',5'-cyclic-AMP phosphodiesterase 4D; assay: Inhibition of PDE4D7 (unknown origin) using FAM-cyclic-3',5'-AMP as substrate at 10 nM incubated for 1 hrs by fluorescence polarization based IMAP assay relative to control
[12] = biological target: cGMP-inhibited 3',5'-cyclic phosphodiesterase 3B (Homo sapiens) (UniProt Q13370); assay: Inhibition of PDE3B (unknown origin) using FAM-cyclic-3',5'-AMP as substrate at 10 uM incubated for 1 hrs by fluorescence polarization based IMAP assay relative to control
Sequence of cGMP-inhibited 3',5'-cyclic phosphodiesterase 3B (Homo sapiens) (Q13370 whole entry, looked up): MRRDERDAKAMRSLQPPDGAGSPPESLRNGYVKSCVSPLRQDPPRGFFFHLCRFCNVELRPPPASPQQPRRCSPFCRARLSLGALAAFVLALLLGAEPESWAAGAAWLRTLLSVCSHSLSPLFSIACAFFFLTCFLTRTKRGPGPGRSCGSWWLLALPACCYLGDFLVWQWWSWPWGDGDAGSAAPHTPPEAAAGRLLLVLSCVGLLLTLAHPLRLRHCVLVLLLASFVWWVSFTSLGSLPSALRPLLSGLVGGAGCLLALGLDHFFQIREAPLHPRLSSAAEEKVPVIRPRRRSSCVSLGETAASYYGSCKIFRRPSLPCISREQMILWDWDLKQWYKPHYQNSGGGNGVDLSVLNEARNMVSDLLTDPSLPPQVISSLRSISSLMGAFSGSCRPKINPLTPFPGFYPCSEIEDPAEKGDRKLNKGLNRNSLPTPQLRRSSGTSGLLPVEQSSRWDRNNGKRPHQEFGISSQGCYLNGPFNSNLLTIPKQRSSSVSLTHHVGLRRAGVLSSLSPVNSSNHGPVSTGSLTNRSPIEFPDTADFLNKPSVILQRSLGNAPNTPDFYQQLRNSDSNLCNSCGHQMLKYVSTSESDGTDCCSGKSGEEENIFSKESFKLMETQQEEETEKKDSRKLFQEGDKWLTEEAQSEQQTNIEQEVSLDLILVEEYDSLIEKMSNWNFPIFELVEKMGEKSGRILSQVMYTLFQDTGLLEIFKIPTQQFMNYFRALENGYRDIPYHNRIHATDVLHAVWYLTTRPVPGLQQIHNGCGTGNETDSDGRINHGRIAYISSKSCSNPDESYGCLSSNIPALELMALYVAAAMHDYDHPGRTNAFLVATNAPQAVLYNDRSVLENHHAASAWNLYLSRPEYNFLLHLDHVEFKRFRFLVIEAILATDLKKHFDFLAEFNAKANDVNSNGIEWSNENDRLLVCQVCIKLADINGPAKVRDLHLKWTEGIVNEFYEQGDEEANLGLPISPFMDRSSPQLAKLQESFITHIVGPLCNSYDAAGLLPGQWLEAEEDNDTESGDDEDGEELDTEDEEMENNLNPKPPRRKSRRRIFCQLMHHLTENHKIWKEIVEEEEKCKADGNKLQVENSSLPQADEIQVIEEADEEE

[13] = Selectivity ratio for inhibition of PDE8A1 (unknown origin) using FAM-cyclic-3',5'-AMP as substrate to inhibition of PDE4B1 (unknown origin) using FAM-cyclic-3',5'-AMP as substrate
[14] = Selectivity ratio for inhibition of PDE7A (unknown origin) using FAM-cyclic-3',5'-AMP as substrate to inhibition of PDE4B1 (unknown origin) using FAM-cyclic-3',5'-AMP as substrate
[15] = biological target: 3',5'-cyclic-AMP phosphodiesterase 4B (Homo sapiens, UniProt Q07343); assay: Inhibition of PDE4B1 (unknown origin) using FAM-cyclic-3',5'-AMP as substrate incubated for 1 hrs by fluorescence polarization based IMAP assay
Sequence of 3',5'-cyclic-AMP phosphodiesterase 4B (Q07343 whole entry): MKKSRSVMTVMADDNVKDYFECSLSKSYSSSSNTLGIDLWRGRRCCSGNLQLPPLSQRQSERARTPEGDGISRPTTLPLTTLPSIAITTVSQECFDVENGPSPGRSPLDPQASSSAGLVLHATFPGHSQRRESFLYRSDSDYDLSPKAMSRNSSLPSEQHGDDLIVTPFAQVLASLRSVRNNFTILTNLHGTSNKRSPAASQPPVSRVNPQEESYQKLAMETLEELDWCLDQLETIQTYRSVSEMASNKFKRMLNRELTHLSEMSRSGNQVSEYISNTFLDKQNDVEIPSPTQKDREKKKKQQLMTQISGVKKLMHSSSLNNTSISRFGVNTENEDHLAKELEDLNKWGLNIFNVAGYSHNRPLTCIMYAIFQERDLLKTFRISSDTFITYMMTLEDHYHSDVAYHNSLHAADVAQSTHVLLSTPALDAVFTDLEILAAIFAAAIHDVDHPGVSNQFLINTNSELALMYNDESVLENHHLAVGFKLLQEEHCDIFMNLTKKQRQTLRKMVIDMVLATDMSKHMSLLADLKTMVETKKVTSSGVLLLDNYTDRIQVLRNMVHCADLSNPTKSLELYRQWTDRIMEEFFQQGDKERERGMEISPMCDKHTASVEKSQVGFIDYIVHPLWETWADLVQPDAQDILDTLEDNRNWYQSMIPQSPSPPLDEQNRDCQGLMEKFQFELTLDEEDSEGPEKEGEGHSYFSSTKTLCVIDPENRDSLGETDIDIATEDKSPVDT

HT-22 = assay: Cytotoxicity against mouse HT-22 cells assessed as reduction in cell viability incubated for 48 hrs by MTT assay; type: toxicity, cell-based; conditions: ht-22, 48 h
[16] = Chemical stability of compound in aqueous solution at pH >10 measured after 48 hrs; type: physicochemical; conditions: buffer
[17] = biological target: High affinity cGMP-specific 3',5'-cyclic phosphodiesterase 9A (Homo sapiens) (UniProt O76083); assay: Inhibition of PDE9A (unknown origin) using FAM-cyclic-3',5'-AMP as substrate at 10 uM incubated for 1 hrs by fluorescence polarization based IMAP assay relative to control
Sequence of High affinity cGMP-specific 3',5'-cyclic phosphodiesterase 9A (Homo sapiens) (O76083 whole entry): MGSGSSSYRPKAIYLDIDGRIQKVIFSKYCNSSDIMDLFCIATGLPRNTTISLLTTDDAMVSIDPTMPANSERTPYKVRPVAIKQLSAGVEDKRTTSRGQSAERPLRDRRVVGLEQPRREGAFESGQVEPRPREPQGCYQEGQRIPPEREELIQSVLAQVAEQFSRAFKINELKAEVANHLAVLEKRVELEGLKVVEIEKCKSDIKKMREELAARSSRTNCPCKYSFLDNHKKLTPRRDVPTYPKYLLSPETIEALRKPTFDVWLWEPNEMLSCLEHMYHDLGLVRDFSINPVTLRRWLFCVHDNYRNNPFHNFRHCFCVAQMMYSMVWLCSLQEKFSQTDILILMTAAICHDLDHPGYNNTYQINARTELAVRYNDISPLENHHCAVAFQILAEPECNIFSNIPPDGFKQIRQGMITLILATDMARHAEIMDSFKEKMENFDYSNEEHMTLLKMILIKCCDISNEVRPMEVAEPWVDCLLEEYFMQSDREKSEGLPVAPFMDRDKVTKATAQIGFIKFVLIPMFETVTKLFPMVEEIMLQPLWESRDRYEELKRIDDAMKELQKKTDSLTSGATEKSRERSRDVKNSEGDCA

[18] = biological target: High affinity cAMP-specific and IBMX-insensitive 3',5'-cyclic phosphodiesterase 8A (Homo sapiens) (UniProt O60658); assay: Inhibition of PDE8A1 (unknown origin) using FAM-cyclic-3',5'-AMP as substrate at 10 uM incubated for 1 hrs by fluorescence polarization based IMAP assay relative to control
Sequence of High affinity cAMP-specific and IBMX-insensitive 3',5'-cyclic phosphodiesterase 8A (Homo sapiens) (O60658 whole entry): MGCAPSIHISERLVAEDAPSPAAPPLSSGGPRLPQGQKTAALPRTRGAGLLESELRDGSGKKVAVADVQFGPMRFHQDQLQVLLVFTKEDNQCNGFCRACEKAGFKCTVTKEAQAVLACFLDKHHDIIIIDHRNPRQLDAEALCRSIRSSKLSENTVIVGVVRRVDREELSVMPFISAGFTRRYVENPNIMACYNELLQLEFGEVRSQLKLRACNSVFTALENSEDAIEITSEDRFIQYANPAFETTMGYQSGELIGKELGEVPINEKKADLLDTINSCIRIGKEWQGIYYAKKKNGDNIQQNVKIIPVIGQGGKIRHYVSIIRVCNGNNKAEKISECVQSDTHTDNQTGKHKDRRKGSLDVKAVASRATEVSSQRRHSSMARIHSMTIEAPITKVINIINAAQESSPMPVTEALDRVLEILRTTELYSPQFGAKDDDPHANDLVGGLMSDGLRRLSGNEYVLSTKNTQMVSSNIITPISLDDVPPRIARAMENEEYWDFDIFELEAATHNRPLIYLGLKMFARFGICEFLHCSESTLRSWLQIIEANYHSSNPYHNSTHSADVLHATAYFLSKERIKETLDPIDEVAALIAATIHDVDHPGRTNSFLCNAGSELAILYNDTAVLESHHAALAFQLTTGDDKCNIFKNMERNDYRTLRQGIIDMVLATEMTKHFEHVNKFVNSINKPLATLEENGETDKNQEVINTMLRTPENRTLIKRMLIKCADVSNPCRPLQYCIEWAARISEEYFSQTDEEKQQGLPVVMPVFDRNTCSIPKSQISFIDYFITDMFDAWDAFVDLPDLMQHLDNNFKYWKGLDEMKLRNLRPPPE

SH-SY5Y = assay: Cytotoxicity against human SH-SY5Y cells assessed as reduction in cell viability incubated for 48 hrs by MTT assay; type: toxicity, cell-based
[19] = Selectivity ratio for inhibition of PDE8A1 (unknown origin) using FAM-cyclic-3',5'-AMP as substrate to inhibition of PDE4D7 (unknown origin) using FAM-cyclic-3',5'-AMP as substrate
[20] = Oral bioavailability in Sprague-Dawley rat at 10 mg/kg measured after 48 hrs by LC-MS/MS analysis; type: ADME, organism-based; conditions: in vivo
[21] = Half-life in Sprague-Dawley rat at 10 mg/kg, po measured after 48 hrs by LC-MS/MS analysis; type: ADME, organism-based; conditions: in vivo
Mus musculus [22] = assay: (§1) Protection against alcoholic liver disease in NIAAA C57BL/6J mouse model assessed as improvement of liver injury at 1 mg/kg, po preadministered with 1 to 4 % of alcohol for 10 days with subsequent compound addition from day 6 to 11 and further administered with 31.25 % alcohol on day 11 and measured after 9 hrs by Oil Red O staining based light microscopic analysis; type: functional, organism-based; conditions: time 5.0 day
Mus musculus [23] = assay: (§2) Protection against alcohol-induced motor impairment in C57BL/6J mouse model assessed as increase in distance travelled at 1 mg/kg, po preadministered with compound every 24 hrs for 3 times followed by alcohol administration 30 mins post last dose and further treated with compound for 3 days followed by alcohol administration 30 mins post last dose and measured at 2 to 20 mins by open field test; type: functional, organism-based; conditions: time 8702-8720 min
Mus musculus [24] = assay: as §1, with “decrease in” for “improvement of”, “index” for “injury”, “hrs” for “hrs by Oil Red O staining based light microscopic analysis”; type: functional, organism-based; conditions: time 5.0 day
[25] = biological target: T1, 3',5'-cyclic-AMP phosphodiesterase 4D; assay: Inhibition of PDE4D7 (unknown origin) using FAM-cyclic-3',5'-AMP as substrate at 1 microM incubated for 1 hrs by fluorescence polarization based IMAP assay relative to control
Mus musculus [26] = assay: as §1, with “steatosis” for “liver injury”; type: functional, organism-based; conditions: time 5.0 day
Mus musculus [27] = assay: (§3) Protection against alcohol exposure-induced anxiety like behavior in C57BL/6J mouse model assessed as increase in center time at 1 mg/kg, po pre-trained with alcohol and water for 42 days with subsequent compound addition from day 22 to day 42 followed by 3.5 hrs of darkness and compound administration for 30 mins followed by water replacement with alcohol for 4 hrs and measured 24 hrs after alcohol withdrawal by open field test; type: functional, organism-based
[28] = Toxicity in ketamine/xylazine-induced anesthetic C57BL/6J mouse model assessed as emetogenic potential by measuring reduction in anesthesia duration at 0.5 to 1 mg/kg, po preadministered with compound for 15 mins followed by ketamine/xylazine administration; type: organism-based; conditions: in vivo, 0.25 h, dose 0.5-1 mg/kg
Mus musculus [29] = assay: as §1, with “decrease in serum ALT level” for “improvement of liver injury”, “absorbance” for “Oil Red O staining”, “plate analyzer” for “light microscopic analysis”; type: functional, organism-based; conditions: time 5.0 day
Mus musculus [30] = assay: as §1, with “H&E” for “Oil Red O”; type: functional, organism-based; conditions: time 5.0 day
Mus musculus [31] = assay: as §1, with “reduction in” for “improvement of”, “IL-6 mRNA level” for “injury”, “RT-qPCR” for “Oil Red O staining based light microscopic”; type: functional, organism-based; conditions: time 5.0 day
Mus musculus [32] = assay: as §2, with “recovery of average speed” for “increase in distance travelled”; type: functional, organism-based; conditions: time 8702-8720 min
Mus musculus [33] = assay: as §1, with “steatosis” for “liver injury”, “H&E” for “Oil Red O”; type: functional, organism-based; conditions: time 5.0 day
Mus musculus [34] = assay: as §3, with “distance travelled” for “increase in center time”; type: functional, organism-based; conditions: time 24.0 day
Mus musculus [35] = assay: as §1, with “decrease in serum AST level” for “improvement of liver injury”, “absorbance” for “Oil Red O staining”, “plate analyzer” for “light microscopic analysis”; type: functional, organism-based; conditions: time 5.0 day
Mus musculus [36] = assay: Protection against alcohol use disorder in C57BL/6J mouse model assessed as decrease in alcohol preference at 1 mg/kg, po pre-trained with alcohol and water for 42 days with subsequent compound addition on day 22 and measured after 3 weeks by two-bottle choice test; type: functional, organism-based
Mus musculus [37] = assay: as §2, with “short recovery time by measuring latency to falling off” for “increase in distance travelled”, “rotarod” for “open field”; type: functional, organism-based; conditions: time 8702-8720 min
Mus musculus [38] = assay: as §1, with “reduction in” for “improvement of”, “TNF-alpha mRNA level” for “injury”, “RT-qPCR” for “Oil Red O staining based light microscopic”; type: functional, organism-based; conditions: time 5.0 day
Mus musculus [39] = assay: as §1, with “reduction in serum TNF-alpha level” for “improvement of liver injury”, “ELISA” for “Oil Red O staining based light microscopic analysis”; type: functional, organism-based; conditions: time 5.0 day
Mus musculus [40] = assay: Protection against alcohol use disorder in C57BL/6J mouse model assessed as decrease in alcohol intake at 1 mg/kg, po pre-trained with alcohol and water for 42 days with subsequent compound addition on day 22 and measured after 3 weeks by two-bottle choice test; type: functional, organism-based
Mus musculus [41] = assay: as §1, with “reduction in serum IL-6 level” for “improvement of liver injury”, “ELISA” for “Oil Red O staining based light microscopic analysis”; type: functional, organism-based; conditions: time 5.0 day
Mus musculus [42] = assay: Protection against alcohol use disorder in C57BL/6J mouse model assessed as decrease in alcohol intake at 1 mg/kg, po pre-trained with alcohol and water for 42 days with subsequent compound addition from day 22 to day 42 followed by 3.5 hrs of darkness and compound administration for 30 mins followed by water replacement with alcohol for 4 hrs on day 46 by Drink-in-Dark test; type: functional, organism-based; conditions: time 23.0 day
Mus musculus [43] = assay: Protection against alcohol-induced sedation in C57BL/6J mouse model assessed as reduction in sleep time at 1 mg/kg, po preadministered with compound every 24 hrs for 3 times followed by alcohol administration 30 mins post last dose; type: functional, organism-based; conditions: time 72.5 hrs
Mus musculus [44] = assay: as §1, with “reduction in” for “improvement of”, “IL-1beta mRNA level” for “injury”, “RT-qPCR” for “Oil Red O staining based light microscopic”; type: functional, organism-based; conditions: time 5.0 day
Mus musculus [45] = assay: as §2, with “decrease” for “increase”, “resting time” for “distance travelled”; type: functional, organism-based; conditions: time 8702-8720 min

T1 sequence (Q08499 whole entry): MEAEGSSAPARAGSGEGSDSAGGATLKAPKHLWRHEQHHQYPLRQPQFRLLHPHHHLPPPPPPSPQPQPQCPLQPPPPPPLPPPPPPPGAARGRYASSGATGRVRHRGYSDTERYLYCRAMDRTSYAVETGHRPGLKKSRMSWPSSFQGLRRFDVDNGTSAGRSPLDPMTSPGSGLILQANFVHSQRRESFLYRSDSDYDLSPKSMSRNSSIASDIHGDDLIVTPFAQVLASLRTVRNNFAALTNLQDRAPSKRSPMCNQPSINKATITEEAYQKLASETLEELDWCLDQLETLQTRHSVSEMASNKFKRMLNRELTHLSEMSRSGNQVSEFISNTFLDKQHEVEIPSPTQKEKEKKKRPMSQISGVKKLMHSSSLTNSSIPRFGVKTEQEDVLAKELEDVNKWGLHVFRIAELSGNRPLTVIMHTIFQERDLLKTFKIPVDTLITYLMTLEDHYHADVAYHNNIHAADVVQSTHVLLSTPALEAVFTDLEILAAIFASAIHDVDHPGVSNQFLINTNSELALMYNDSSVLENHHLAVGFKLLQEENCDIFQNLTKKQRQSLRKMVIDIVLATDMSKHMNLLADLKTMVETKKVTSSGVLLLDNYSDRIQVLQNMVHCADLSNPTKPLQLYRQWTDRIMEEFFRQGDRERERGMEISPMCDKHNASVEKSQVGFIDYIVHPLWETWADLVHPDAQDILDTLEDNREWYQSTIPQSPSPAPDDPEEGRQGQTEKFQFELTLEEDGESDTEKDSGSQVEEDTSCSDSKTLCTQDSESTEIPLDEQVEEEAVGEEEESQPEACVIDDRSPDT

inhibition [1]: 69%
Selectivity ratio [2]: > 284
Stability [3]: Stable
IC50 [4]: 25.6 nM
inhibition [5]: 12%
Selectivity ratio [7]: > 284
Selectivity ratio [8]: > 284
Selectivity ratio [9]: > 284
Selectivity ratio [10]: > 284
inhibition [11]: 35%
inhibition [12]: 7%
Selectivity ratio [13]: > 284
Selectivity ratio [14]: > 284
IC50 [15]: 35.2 nM
Stability [16]: Stable
inhibition [17]: 6%
inhibition [18]: 7%
Selectivity ratio [19]: > 284
Compound: CCOc1nc(Cl)cc2nn(CCC(=O)O)cc12
Activity [6]: Toxic
Activity (HT-22): Non-Toxic
Activity (SH-SY5Y): Non-Toxic

bioavailability [20]: 43%
half-life [21]: 59.4 min
Compound: CCNc1cc(C(=O)C2CCCC2)ccc1OC

inhibition [1]: 34%
inhibition [25]: 72%
Compound: COc1ccc(C2CNC(=O)C2)cc1OC1CCCC1 (stereo not drawn) [ROLIPRAM]
Activity (Mus musculus [22]): Active
Activity (Mus musculus [23]): Active
Activity (Mus musculus [24]): Active
Activity (Mus musculus [26]): Active
Activity (Mus musculus [27]): Active
Activity [28]: Toxic
Activity (Mus musculus [29]): Active
Activity (Mus musculus [30]): Active
Activity (Mus musculus [31]): Active
Activity (Mus musculus [32]): Active
Activity (Mus musculus [33]): Active
Activity (Mus musculus [34]): Active
Activity (Mus musculus [35]): Active
Activity (Mus musculus [36]): Active
Activity (Mus musculus [37]): inactive
Activity (Mus musculus [38]): Active
Activity (Mus musculus [39]): Active
Activity (Mus musculus [40]): Active
Activity (Mus musculus [41]): Active
Activity (Mus musculus [42]): Active
Activity (Mus musculus [43]): inactive
Activity (Mus musculus [44]): Active
Activity (Mus musculus [45]): Active

Source: ChEMBL document CHEMBL5532675, “Discovery of 4-Ethoxy-6-chloro-5-azaindazoles as Novel PDE4 Inhibitors for the Treatment of Alcohol Use Disorder and Alcoholic Liver Diseases” (J Med Chem, 2024)
